Columns and labels:
Assay in all cases: Cell proliferation assay (MTS)
ZR751 = assay type: cell-based, human
Description: (§1) The sensitivity of a panel of human cancer cell lines to the effects of compounds was determined in a standard proliferation assay. Cell lines were sourced through the AstraZeneca Cell Bank.
(§2) Cells were plated in 96 well plates at densities of 1000-6000 cells per well in RPMI media containing 10% FBS. After incubation at 37° C. for 16 hours, various concentrations of compound were added to the assay plates. After incubation for an additional 72 h, the viable cells were determined by the addition of MTS reagent (Promega #3582) to each well for 2 h. MTS is a tetrazolium salt that is bioreduced by metabolically active cells in the presence of an electron coupling reagent to formazan. The formazan product was then quantitated by absorbance at 490 nm, as an indicator of the relative number of live cells. In order to determine the GI50 (concentration at which growth of cells was inhibited by 50%) the relative number of cells present at the time of drug addition was determined by comparison with the MTS readout before the drug was added, and this value was subtracted from the 72 hr value of untreated cells as a measure of cell growth during the assay.

J82 = assay type: cell-based, human
Description: (§3) The sensitivity of a panel of human cancer cell lines to the effects of compounds was determined in a standard proliferation assay.
(§4) Cells were plated in 96 well plates at densities of 1000-6000 cells per well in RPMI media containing 10% FBS. After incubation at 37° C. for 16 hours, various concentrations of compound were added to the assay plates. After incubation for an additional 72 h, the viable cells were determined by the addition of MTS reagent (Promega #3582) to each well for 2 h. […] The formazan product was then quantitated by absorbance at 490 nm, as an indicator of the relative number of live cells. In order to determine the GI50 (concentration at which growth of cells was inhibited by 50%) the relative number of cells present at the time of drug addition was determined by comparison with the MTS readout before the drug was added, and this value was subtracted from the 72 hr value of untreated cells as a measure of cell growth during the assay.

H838 = assay type: cell-based, human
Description: as §3, §2

SW480 = assay type: cell-based, human
Description: as §3, §4

HCC15 = assay type: cell-based, human
Description: as §3, §2

H2286 = system: H2286
Description: as §3, §4

PAMC82 = assay type: cell-based, human
Description: as §1, §4

SNU354 = assay type: cell-based, human
Description: as §3, §4

HCC1954 = assay type: cell-based, human
Description: as §3, §2

PC9 = assay type: cell-based, human
Description: as §3, §2

KG1 = assay type: cell-based, human
Description: as §3, §2

NUGC4 = assay type: cell-based, human
Description: as §3, §2

H1975 = assay type: cell-based, human
Description: as §1, §2

PANC1005 = assay type: cell-based, human
Description: as §3, §2

BEL7405 = assay type: cell-based, human
Description: as §1, §2

COLO205 = assay type: cell-based, human
Description: as §3, §4

HCA7 = assay type: cell-based, human
Description: as §3, §4

RERFLCSQ1 = assay type: cell-based, human
Description: as §3, §2

THP1 = assay type: cell-based, human
Description: as §1, §2

SNU1 = assay type: cell-based, human
Description: as §1, §2

VMCUB1 = assay type: cell-based, human
Description: as §3, §2

MKN74 = assay type: cell-based, human
Description: as §3, §2

OCIAML2 = assay type: cell-based, human
Description: as §3, §2

HCC1395 = assay type: cell-based, human
Description: as §3, §4

SKCO1 = assay type: cell-based, human
Description: as §3, §4

RT11284 = assay type: cell-based, human
Description: as §3, §2

RPM18226 = assay type: cell-based, human
Description: as §3, §4

647V = assay type: cell-based, human
Description: as §3, §4

BXPC3 = assay type: cell-based, human
Description: as §3, §4

CMK = assay type: cell-based, human
Description: as §3, §2

MOLP8 = assay type: cell-based, human
Description: as §1, §2

TCCSUP = assay type: cell-based, human
Description: as §3, §2

COLO320DM = system: COLO320DM
Description: as §1, §2

SNU5 = assay type: cell-based, human
Description: as §3, §4

OCILY19 = assay type: cell-based, human
Description: as §3, §2

CAMA1 = assay type: cell-based, human
Description: as §1, §2

977 = assay type: cell-based, human
Description: as §3, §2

RT4 = assay type: cell-based, human
Description: as §3, §4

MDAMB231 = assay type: cell-based, human
Description: as §3, §4

HT29 = assay type: cell-based, human
Description: as §3, §4

RKO = assay type: cell-based, human
Description: as §3, §2

NOMO1 = assay type: cell-based, human
Description: as §3, §2

[1] = Homo sapiens, Stomach, PIK3CA WT
[2] = Homo sapiens, Blood/lymph, PIK3CA WT
[3] = Homo sapiens, Bladder, PIK3CA WT

CCn1nc(C2CCN(C(=O)CCO)CC2)nc1-c1cnc(N)c(-c2nnc(C(C)(C)C)o2)n1 [Example 3, 1-(4-(5-(5-amino-6-(5-tert-butyl-1,3,4-oxadiazol-2-yl)pyrazin-2-yl)-1-ethyl-1H-1,2,4-triazol-3-yl)piperidin-1-yl)-3-hydroxypropan-1-one]
Category (ZR751): Resistant (resistant (GI50>1.0 μM))
GI50 (ZR751; Homo sapiens, ZR-75-1, Breast, PIK3CA WT): 3.56 µM
Category (J82): Resistant (resistant (GI50>1.0 μM))
GI50 (J82; Homo sapiens, Bladder, PIK3CA MUT): 13.4 µM
Category (H838): Resistant (resistant (GI50>1.0 μM))
GI50 (H838; Homo sapiens, NCI-H838, Lung, PIK3CA WT): 30 µM
Category (SW480): Resistant (resistant (GI50>1.0 μM))
GI50 (SW480; Homo sapiens, Colon, PIK3CA WT): 15.9 µM
Category (HCC15): Resistant (resistant (GI50>1.0 μM))
GI50 (HCC15; Homo sapiens, Lung, PIK3CA WT): 30 µM
Category (H2286; H2286): Resistant (resistant (GI50>1.0 μM))
GI50 (H2286; Homo sapiens, NCI-H2286): 20 µM
Category (PAMC82): Resistant (resistant (GI50>1.0 μM))
GI50 (PAMC82; [1]): 1.37 µM
Category (SNU354): Resistant (resistant (GI50>1.0 μM))
GI50 (SNU354; Homo sapiens, SNU-354, Liver, PIK3CA WT): 5.6 µM
Category (HCC1954): Sensitive (sensitive (GI50<=1.0 μM))
GI50 (HCC1954; Homo sapiens, Breast, PIK3CA MUT): 0.879 µM
Category (PC9): Resistant (resistant (GI50>1.0 μM))
GI50 (PC9; Homo sapiens, PC-9, Lung, PIK3CA WT): 30 µM
Category (KG1): Resistant (resistant (GI50>1.0 μM))
GI50 (KG1; Homo sapiens, KG-1, Blood/lymph, PIK3CA WT): 6.59 µM
Category (NUGC4): Resistant (resistant (GI50>1.0 μM))
GI50 (NUGC4; Homo sapiens, NUGC-4, Stomach, PIK3CA WT): 30 µM
Category (H1975): Resistant (resistant (GI50>1.0 μM))
GI50 (H1975; Homo sapiens, NCI-H1975, Lung, PIK3CA MUT): 2.26 µM
Category (PANC1005): Resistant (resistant (GI50>1.0 μM))
GI50 (PANC1005; Homo sapiens, Pancreas, PIK3CA WT): 2.61 µM
Category (BEL7405): Resistant (resistant (GI50>1.0 μM))
GI50 (BEL7405; Homo sapiens, Liver, PIK3CA WT): 8.11 µM
Category (COLO205): Resistant (resistant (GI50>1.0 μM))
GI50 (COLO205; Homo sapiens, COLO 205, Colon, PIK3CA WT): 8.93 µM
Category (HCA7): Resistant (resistant (GI50>1.0 μM))
GI50 (HCA7; Homo sapiens, HCA-7, Colon, PIK3CA WT): 15.5 µM
GI50 (RERFLCSQ1; Homo sapiens, RERF-LC-Sq1, Lung, PIK3CA MUT): 0.771 µM
Category (RERFLCSQ1; RERFLCSQ1): Sensitive (sensitive (GI50<=1.0 μM))
Category (THP1): Sensitive (sensitive (GI50<=1.0 μM))
GI50 (THP1; Homo sapiens, THP-1, Blood/lymph, PIK3CA WT): 0.528 µM
Category (SNU1): Resistant (resistant (GI50>1.0 μM))
GI50 (SNU1; [1]): 15 µM
Category (VMCUB1): Sensitive (sensitive (GI50<=1.0 μM))
GI50 (VMCUB1; Homo sapiens, VM-CUB-1, Bladder, PIK3CA MUT): 0.732 µM
Category (MKN74): Resistant (resistant (GI50>1.0 μM))
GI50 (MKN74; Homo sapiens, MKN-74, Stomach, PIK3CA WT): 30 µM
Category (OCIAML2): Resistant (resistant (GI50>1.0 μM))
GI50 (OCIAML2; Homo sapiens, OCI-AML2, Blood/lymph, PIK3CA WT): 30 µM
Category (HCC1395): Resistant (resistant (GI50>1.0 μM))
GI50 (HCC1395; Homo sapiens, Breast, PIK3CA WT): 21.8 µM
Category (SKCO1): Resistant (resistant (GI50>1.0 μM))
GI50 (SKCO1; Homo sapiens, SK-CO-1, Colon, PIK3CA WT): 1.13 µM
Category (RT11284): Resistant (resistant (GI50>1.0 μM))
GI50 (RT11284; Homo sapiens, RT112/84, Bladder, PIK3CA WT): 1.17 µM
Category (RPM18226): Resistant (resistant (GI50>1.0 μM))
GI50 (RPM18226; [2]): 30 µM
Category (647V): Resistant (resistant (GI50>1.0 μM))
GI50 (647V; [3]): 5.46 µM
Category (BXPC3): Resistant (resistant (GI50>1.0 μM))
GI50 (BXPC3; Homo sapiens, BXPC-3, Pancreas, PIK3CA WT): 14.1 µM
Category (CMK): Resistant (resistant (GI50>1.0 μM))
GI50 (CMK; [2]): 28.9 µM
Category (MOLP8): Resistant (resistant (GI50>1.0 μM))
GI50 (MOLP8; Homo sapiens, MOLP-8, Blood/lymph, PIK3CA WT): 3.29 µM
Category (TCCSUP): Sensitive (sensitive (GI50<=1.0 μM))
GI50 (TCCSUP; Homo sapiens, TCC-SUP, Bladder, PIK3CA MUT): 0.724 µM
Category (COLO320DM; COLO320DM): Resistant (resistant (GI50>1.0 μM))
GI50 (COLO320DM; Homo sapiens, COLO 320DM): 2.51 µM
Category (SNU5): Resistant (resistant (GI50>1.0 μM))
GI50 (SNU5; Homo sapiens, SNU-5, Stomach, PIK3CA WT): 21.2 µM
Category (OCILY19): Resistant (resistant (GI50>1.0 μM))
GI50 (OCILY19; Homo sapiens, OCI-LY19, Blood/lymph, PIK3CA WT): 30 µM
Category (CAMA1): Resistant (resistant (GI50>1.0 μM))
GI50 (CAMA1; Homo sapiens, CAMA-1, Breast, PIK3CA WT): 15.5 µM
Category 977: Resistant (resistant (GI50>1.0 μM))
GI50 977; [3]: 4.42 µM
Category (RT4): Resistant (resistant (GI50>1.0 μM))
GI50 (RT4; Homo sapiens, RT-4, Bladder, PIK3CA WT): 8.94 µM
Category (MDAMB231): Resistant (resistant (GI50>1.0 μM))
GI50 (MDAMB231; Homo sapiens, MDA-MB-231, Breast, PIK3CA WT): 23.6 µM
Category (HT29): Resistant (resistant (GI50>1.0 μM))
GI50 (HT29; Homo sapiens, HT-29, Colon, PIK3CA MUT): 5.48 µM
Category (RKO): Resistant (resistant (GI50>1.0 μM))
GI50 (RKO; Homo sapiens, Colon, PIK3CA MUT): 4.32 µM
Category (NOMO1): Resistant (resistant (GI50>1.0 μM))
GI50 (NOMO1; Homo sapiens, NOMO-1, Blood/lymph, PIK3CA WT): 2.17 µM

Reference: patent US9156831B2, “Chemical compounds” (ASTRAZENECA AB, priority 2013, dated 2015)
